Patent US8722637B2, “Methods and compositions of IG20 and DENN-SV splice variants” (The Board of Trustees of the University of Illinois, priority 2003, dated 2014)

What was measured:
Type in all cases: cell-based, human
[1] = system: HeLa-control, HeLa-IG20 and HeLa-DENN-SV cells; experiment: Colony formation after etoposide treatment (crystal violet)
Experimental: (§1) FIG. 9: Effects of IG20 and DENN-SV on survival and proliferation of cells treated with etoposide. (A) Cell survival after etoposide treatment. Cells were treated with the indicated doses of etoposide and allowed to grow in culture for 2 weeks and stained with crystal violet. (B) Enumeration of colonies after etoposide treatment. Three different experiments using the indicated doses of etoposide were used to determine the effects of the drug on HeLa-control, HeLa-IG20 and HeLa-DENN-SV cells. P values were <0.05 for all test groups. (C) Etoposide-Induced apoptosis. Cells treated with the indicated doses of etoposide were stained with Hoechst as described in Materials and Methods and evaluated for chromatin condensation under a microscope. P values were <0.05 for all test groups. (D) Cell Division after Etoposide Treatment. Cells were stained with CFDA and then subjected to 5 μM etoposide treatment for 5 days. Cells were then harvested and evaluated by FACS for CFDA staining intensity. Histograms show relative levels of CFDA dye retention. The peak on the left within each histogram represents cells that have undergone cell division, and therefore, partially lost CFDA staining, whereas the peak on the right represents undivided cells that retained maximum CFDA staining.
(§2) Cells were plated (10^5 cells/well) the day before treatment into 6 well plates. Cells were treated with etoposide for 24 hours or vinblastine for 1 hour at indicated concentrations. After treatment, cells were washed 3 times with PBS and then replenished with fresh media and incubated at 37° C. Two weeks later, cells were fixed in ice-cold methanol and stained with crystal violet for visualization.

[2] = system: HeLa-control, HeLa-IG20 and HeLa-DENN-SV cells; experiment: Etoposide-induced apoptosis, Hoechst chromatin condensation
Experimental: as §1
Cells were stained in situ with 1 μg/ml of Hoechst 33342 (Sigma, St. Louis, Mo.) in DMEM for 10 minutes at 37° C. […]

[3] = system: HeLa-control, HeLa-IG20 and HeLa-DENN-SV cells; experiment: Cell division after etoposide treatment, CFDA staining; settings: 5 μM etoposide for 5 days
Experimental: as §1
1×10^5 Cells/100 mm^2 plate were stained with 2 μM CFDA (Molecular Probes, Eugene, Oreg.) in situ in 5 ml PBS/100 mm^2 for 10 minutes at 37° C. Cells were then washed 3 times and replenished with new media Cells were harvested 5 days later and analyzed by FACS.

[4] = system: HeLa-control, HeLa-IG20 and HeLa-DENN-SV cells; experiment: Cell survival (crystal violet colonies) after vinblastine treatment; settings: dose of 0.05 ∝M, two weeks
Experimental: (§3) FIG. 8: Effect of IG20 and DENN-SV on Cell Survival and Apoptosis of TransfectedCells after Vinblastine Treatment. (A) Cell survival after Vinblastine treatment. […] (B) Vinblastine-Induced apoptosis. Cells treated with 0.05 μM vinblastine were stained with Hoechst 24 hours after the treatment in order to determine the percentage of cells with condensed chromatin. P values were <0.05 for all test groups.
as §2

[5] = system: HeLa-control, HeLa-IG20 and HeLa-DENN-SV cells; experiment: Vinblastine-induced apoptosis, chromatin condensation by Hoechst staining; settings: 0.05 μM vinblastine, Hoechst 24 hours after treatment
Experimental: as §3, §2
Cells were stained in situ with 1 μg/ml of Hoechst 33342 (Sigma, St. Louis, Mo.) in DMEM for 10 minutes at 37° C. Chromatin condensation was then visualized in situ using a Diaphot 200 inverted microscope with an epifluorescence attachment (Nikon, Inc., Melville, N.Y.). 10 different fields were randomly chosen to determine the average number of cells with condensed chromatin (apoptotic) as compared to live cells.

[6] = system: caspase-3; experiment: Caspase-3 activation in HeLa IG20 cells; settings: 5 hours; TRAIL, or TNF-α and cycloheximide
Experimental: FIG. 15: IG20 Cells show increased specific activation of caspases upon TRAIL treatment A) Initiator caspases—Hela IG20 cells and control cells treated with TRAIL for 1H, were stained, with flourochrome-conjugated peptide inhibitors of specific active caspases as indicated, fixed and analyzed by FACS. B) Caspase-8 cleavage—IG20 HeLa cells and control cells were treated with TRAIL for either 1H or 3H, lysed and immunoblotted for the 10 kDa cleaved product of active caspase-8 using the 6B6 monoclonal antibody. […]
Caspase activation—To assess the general activation of caspases, cells were stained with FITC tagged caspase inhibitor Val-Ala-Asp-flouromethyl ketone Promega, Madison, Wis.) for 10 minutes at 37° C., washed and analyzed by FACS for percentage of FITC positive cells. The initiator caspases were analyzed by using carboxyflourescein labeled peptide flouromethlyketone inhibitors (FAM-peptide-FMK) directed against active caspase-8, 9 and 10 (APOLOGIX caspase detection kit, Cell Tech Inc., Minneapolis, Minn.). […] Cells were collected, washed once, resuspended in Perm/wash buffer and analyzed by FACS for PE positive population. […]

[7] = system: HeLa cells; experiment: TNFα-induced mitochondrial depolarization in Annexin V-separated cells
Text: FIG. 7: Endogenous Expression of IG20 variants and Susceptibility To TNF-Induced Apoptosis. (A) Magnetic Separation of Apoptotic and TNFα-resistant Cells. Apoptotic cells were magnetized and physically separated from TNFα-resistant cells using the Annexin V-conjugated microbeads, as described in Materials and Methods. mRNAs were then isolated from apoptotic and TNFα-resistant cells separately and were used in RT-PCR using IG20-specific primers F-1 and B-1. […] In contrast, marked increase in expression of IG20 with no expression of DENN-SV (the anti-apoptotic variant) is seen in apoptotic cells. (B) TNFα-Induced Mitochondrial Depolarization in apoptotic and TNFα-resistant cells. Cells in (A) were then assessed for mitochondrial depolarization. […] Bars represent averages from three wells for each group. The experiment was repeated at least three times and consistent results were obtained.
Cells were plated in 6-well plates at 1.2×10^5 in growth medium. Twenty four hours later, cells were either untreated or treated with 10 ng/ml TNF-α and 10 μg/ml cyclohexamide (CHX) for 6 hours. To assess the effects of TNFα and CHX treatment, cells were either stained with 100 nM tetramethylrhodamine ethyl ester (TMRE) (Molecular Probes, Eugene, Oreg.) for 10 minutes, harvested by trypsinization, washed once with ice-cold PBS and then subjected to FACS analysis, or were stained with either trypan blue and evaluated for viability using a light microscope, or with 1 μg/ml Hoechst 33342 (Sigma) for 10 minutes and evaluated for chromatin condensation in situ using a Diaphot 200 inverted microscope with an epifluorescence attachment (Nikon, Melville, N.Y.).
To separate cells that were undergoing apoptosis, or resistant to apoptosis upon TNFα treatment, the Annexin V microbeads (Miltenyi Biotec, Inc.) were used according to manufacturer's protocol. Annexin V is a phospholipid-binding protein that recognizes phosphatidylserine on the surface of apoptotic cells. […]

[8] = system: HeLa IG20 cells; experiment: TRAIL or TNF-α/cycloheximide induced apoptosis in HeLa IG20 cells (caspase activation, TMRE, Hoechst); settings: 5 hours; TRAIL 100 ng/mL, or 10 ng/mL TNF-α and 10 μg/mL cycloheximide
Experimental: FIG. 13: IG20 transfected HeLa cells show increased apoptosis upon TRAIL treatment. HeLa-IG20 and control cells were treated for 5 hours with TRAIL at 100 ng/mL or with 10 ng/mL of TNF-α and 10 μg/mL of Cycloheximide and analyzed for apoptosis. A) Activation of caspases—cells were incubated for 10 minutes with FITC labeled general caspase inhibitor VAD FMK (Val-Ala-Asp-flouromethyl ketone) and analyzed by FACS. Numbers in the histogram indicate percentage of FITC positive cells. B) Mitochondrial Depolarization—Loss of the dye TMRE is indicative of mitochondrial depolarization and the numbers shown in the FACS histograms represent percentage of TMRE negative cells. All the above experiments were done in triplicates and results shown are representative histograms. […] D) Percentage of cells with condensed chromatin was calculated by counting 3 fields containing at least 200 cells each and error bars indicate mean±S.D.
Mitochondrial depolarization and chromatin condensation—2×10^5 HeLa IG20 and Vector control cells were plated into a 12-well culture dish and allowed to grow for 48 hours. […] Cells were assessed for loss of mitochondrial membrane potential by staining with tetramethylrhodamine ethyl ester (100 nm, Molecular Probes, Eugene, Oreg.) for 10 minutes, washed once with ice-cold PBS, collected and subjected to FACS analysis. […]

## COc1cc([C@@H]2c3cc4c(cc3[C@@H](O[C@@H]3O[C@@H]5CO[C@@H](C)O[C@H]5[C@H](O)[C@H]3O)[C@H]3COC(=O)[C@H]23)OCO4)cc(OC)c1O [etoposide]
[1]; HeLa-DENN-SV cells, 5 μM etoposide
  Colonies formed after etoposide treatment: 125 colonies
[1]; HeLa-DENN-SV cells, 20 μM etoposide
  Colonies formed after etoposide treatment: approximately 40 colonies
[1]; HeLa-DENN-SV cells, 30 μM etoposide
  Growth after etoposide treatment: able to grow
[1]; HeLa-IG20 cells, 5 μM etoposide, on average
  Colonies formed after etoposide treatment: 8 colonies
[1]; HeLa-IG20 cells, 20 μM etoposide
  Colonies formed after etoposide treatment: very few or no colonies
[1]; HeLa-control cells, 5 μM etoposide
  Colonies formed after etoposide treatment: 39 colonies
[2]; HeLa-DENN-SV cells
  Etoposide-induced apoptosis: noticeable resistance to etoposide-induced apoptosis
[2]; HeLa-IG20 cells
  Etoposide-induced apoptosis: did not show a marked increase in susceptibility to apoptosis
[3]; DENN-SV cells
  Cell division as indicated by CFDA staining: 36%
[3]; HeLa-IG20 cells
  Cell division as indicated by CFDA staining: 9%
[3]; control cells
  Cell division as indicated by CFDA staining: 24%

## CC[C@]1(O)C[C@@H]2CN(CCc3c([nH]c4ccccc34)[C@@](C(=O)OC)(c3cc4c(cc3OC)N(C)[C@H]3[C@@](O)(C(=O)OC)[C@H](OC(C)=O)[C@]5(CC)C=CCN6CC[C@]43[C@@H]65)C2)C1 [vinblastine]
[4]; HeLa-DENN-SV cells
  Cell survival (colonies) after vinblastine treatment: not significantly affected
[4]; HeLa-IG20 cells
  Cell survival (colonies) after vinblastine treatment: only a few HeLa-IG20 colonies detectable
[4]; HeLa-control cells
  Cell survival (colonies) after vinblastine treatment: intermediary response
[5]; HeLa-DENN-SV cells
  Vinblastine-induced apoptosis as measured by chromatin condensation: 21%
[5]; HeLa-IG20 cells
  Vinblastine-induced apoptosis as measured by chromatin condensation: 70%
[5]; HeLa-controls
  Vinblastine-induced apoptosis as measured by chromatin condensation: 46%

## TNFα
[6]
  Relative increase in caspase-3 activation, HeLa IG20 relative to control cells: less than two fold increase
[7]; Annexin V-negative HeLa cells after TNFα and CHX
  Apoptosis (cells with depolarized mitochondria): 8%
[7]; Annexin V-positive HeLa cells after TNFα and CHX
  Apoptosis (cells with depolarized mitochondria): 93%
[7]; unseparated control HeLa cells
  Apoptosis (cells with depolarized mitochondria): 35%
[8]
  Increase in cells undergoing apoptosis, HeLa IG20 versus control cells: two-fold increase
